Measurements reported in ChEMBL document CHEMBL4190264, “Phylogenomics of 2,4-Diacetylphloroglucinol-Producing Pseudomonas and Novel Antiglycation Endophytes from Piper auritum” (J Nat Prod, 2017).
Values belong to the compound of their own block, whether it stands above or below them. The source made the active and inactive calls. The calls are words filed in the database; no cut-off is given here.

What was measured:
Albumin [1] = biological target: T1, Albumin (Bos taurus, UniProt P02769); test: Antiglycation activity in bovine serum albumin assessed as inhibition of advanced glycated end product formation in presence of D-glucose by spectrofluorimetric analysis; conditions: for inhibition (INH): cattle
Albumin [2] = biological target: T1, Albumin; test: Antiglycation activity in bovine serum albumin assessed as inhibition of advanced glycated end product formation in presence of D-glucose and 5-hydroxyferulic acid by spectrofluorimetric analysis; conditions: cattle
Albumin [3] = biological target: T1, Albumin; test: Antiglycation activity in bovine serum albumin assessed as inhibition of advanced glycated end product formation in presence of D-glucose and ferulic acid by spectrofluorimetric analysis; conditions: cattle
Albumin [4] = biological target: T1, Albumin; test: Antiglycation activity in bovine serum albumin assessed as inhibition of advanced glycated end product formation in presence of D-glucose at 10 mM by spectrofluorimetric analysis; conditions: cattle
[5] = Inhibition of glucose auto-oxidation after 30 mins in presence of deoxyribose by benzoate hydroxylation assay; format: functional
Albumin [6] = biological target: T1, Albumin; test: Antiglycation activity in bovine serum albumin assessed as inhibition of MGO-mediated protein modification after 5 days by PAGE analysis; conditions: cattle, 120 h
Albumin [7] = biological target: T2, Albumin (Homo sapiens, UniProt P02768); test: Antiglycation activity in human serum albumin assessed as inhibition of fructosamine formation by measuring amadori products after 10 to 15 mins by NBT assay
Albumin [8] = biological target: T2, Albumin; test: Antiglycation activity in human serum albumin assessed as inhibition of fructosamine formation by measuring amadori products after 10 to 15 mins in presence of 5-hydroxyferulic acid by NBT assay

T1 sequence (P02769 whole entry): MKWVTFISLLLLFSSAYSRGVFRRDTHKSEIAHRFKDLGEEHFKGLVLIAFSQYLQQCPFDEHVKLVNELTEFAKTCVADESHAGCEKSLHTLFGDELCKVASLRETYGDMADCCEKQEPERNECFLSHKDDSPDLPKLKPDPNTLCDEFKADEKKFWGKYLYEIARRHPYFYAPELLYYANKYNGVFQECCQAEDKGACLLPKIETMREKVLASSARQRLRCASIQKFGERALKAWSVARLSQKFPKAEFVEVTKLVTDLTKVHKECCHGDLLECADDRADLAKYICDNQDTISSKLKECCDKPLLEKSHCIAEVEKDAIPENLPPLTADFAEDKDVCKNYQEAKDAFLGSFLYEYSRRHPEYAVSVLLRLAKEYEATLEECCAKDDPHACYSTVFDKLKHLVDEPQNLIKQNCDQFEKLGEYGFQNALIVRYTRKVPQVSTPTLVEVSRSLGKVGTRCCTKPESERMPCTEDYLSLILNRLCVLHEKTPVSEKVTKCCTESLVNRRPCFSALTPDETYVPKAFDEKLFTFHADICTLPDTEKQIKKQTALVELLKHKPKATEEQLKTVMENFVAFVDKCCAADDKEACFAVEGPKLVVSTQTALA
T2 sequence (P02768 whole entry): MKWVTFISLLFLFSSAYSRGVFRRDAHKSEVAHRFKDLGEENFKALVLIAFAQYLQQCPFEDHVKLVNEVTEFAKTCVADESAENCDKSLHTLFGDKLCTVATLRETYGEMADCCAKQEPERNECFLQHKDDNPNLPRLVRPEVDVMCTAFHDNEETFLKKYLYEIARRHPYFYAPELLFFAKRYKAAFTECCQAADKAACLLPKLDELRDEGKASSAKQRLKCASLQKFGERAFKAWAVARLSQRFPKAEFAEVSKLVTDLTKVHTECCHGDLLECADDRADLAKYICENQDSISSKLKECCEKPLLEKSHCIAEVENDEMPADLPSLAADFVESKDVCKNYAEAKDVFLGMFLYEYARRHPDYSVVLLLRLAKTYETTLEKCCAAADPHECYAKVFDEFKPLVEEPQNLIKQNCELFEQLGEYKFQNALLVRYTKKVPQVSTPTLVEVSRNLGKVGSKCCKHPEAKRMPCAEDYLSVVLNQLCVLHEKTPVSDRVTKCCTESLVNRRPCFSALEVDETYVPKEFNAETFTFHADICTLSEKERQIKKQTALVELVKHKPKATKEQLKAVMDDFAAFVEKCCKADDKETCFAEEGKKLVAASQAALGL

Compound: COc1cc(/C=C/C(=O)O)cc(O)c1O
inhibition (INH) (Albumin [1]): Not Active
inhibition (INH) (Albumin [3]): Active

Compound: N=C(N)NN [PIMAGEDINE]
EC50 (Albumin [1]): 26 mM
inhibition (INH) (Albumin [4]): Active

Compound: CCCCCC/C=C\CCCCCCCCCC(=O)O [VACCENIC ACID]
inhibition (INH) (Albumin [1]): 66%

The next lines start with results.

inhibition (INH) (Albumin [1]): Not Active
inhibition (INH) (Albumin [2]): Active
Compound: COc1cc(/C=C/C(=O)O)ccc1O [FERULATE]

inhibition (INH) (Albumin [1]): 66%
Compound: CCCCCCCC/C=C\CCCCCCC(=O)O

inhibition (INH) (Albumin [1]): 66%
Compound: CCCCCCCCCCCCCCCC(=O)O [PALMITIC ACID]

EC50 (Albumin [1]): 6.3 mM
inhibition (INH) (Albumin [1]): 83%
inhibition (INH) (Albumin [6]): Active
inhibition (INH) (Albumin [7]): Not Active
inhibition (INH) (Albumin [8]): Active
inhibition (INH) (Albumin [2]): Active
Compound: CC(=O)c1c(O)cc(O)c(C(C)=O)c1O
inhibition [5]: Active
